Measured values as given in patent US20220220472A1, “TARGETED THERAPY” (The Regents of the University of Michigan, priority 2019, published 2022).

Tests used:
[1] = tested on: HCT116 xenografts; assay: HCT116 xenograft tumor growth in mice; type: in vivo; settings: water with Dox and Nu7441
Experimental: In these experiments, HCT116 cells are injected into mice and each group is split into three treatment groups that receive ether regular water, water with Dox, or water with Dox and Nu7441.
Experiments are conducted in which three of the HCT116 cell lines with dox-inducible expression of dCas9-Fok1-GFP with and without CRJ-targeting gRNAs are used to form xenografts in the flank of mice. In these experiments, one million HCT116 cells in a 100 μl Matrigel suspension are injected s.c. into the hind leg of the mice (a total of 54 NOD/SCID or athymic BALB/C, 10-12 weeks old). When tumors reach sizes of 50-150 mm^3, each group is split into three groups (see, e.g., FIG. 2) where they receive ether regular water, water with Dox, or water with Dox and Nu7441. Tumor measurements are taken daily and mouse weights are recorded 3 times weekly. As the control tumors reach the predetermined tumor size limit, animals are euthanized. At this time, the tumors are removed, weighed, and documented (e.g., using digital imaging) and used for downstream analyses. Downstream analyses include measuring expression of dCas9-Fok1-GFP (green fluorescence) and γH2AX ChIP-PCR with primers for sequences near the CRJ and sequences far away as a control.

[2] = tested on: UMUC-3 orthotopic tumors; assay: UMUC-3 orthotopic xenograft tumor growth in NOD-scid mice; type: in vivo; settings: UMUC-3 in NODscid mice; doxycycline plus Nu7441
Experimental: FIG. 7 is a schematic drawing showing an in vivo experiment comparing tumor growth between UMUC-3 cells expressing non-targeting gRNAs (left) and UMUC-3 cells expressing CRJ-targeting gRNAs (right). These cell lines are engineered to express luciferase for bioluminescent monitoring. Each mouse group represents 10 NODscid mice. […] Accordingly, further experiments are conducted to grow these cell lines as orthotopic xenografts in NOD-scid mice and to monitor tumor growth (e.g., using bioluminescence) in vivo as the CRISPR reagents are induced by doxycycline (e.g., provided in food and/or water). UMUC-3 cells are grown as orthotopic tumors in NOD-scid mice, animals are given doxycycline to induce Fok1-dCas9 and the two pairs of gRNAs in the cancer cells, and the effects on tumor growth are assessed by bioluminescence. […] The other cell line expresses CRJ-targeting gRNAs following doxycycline exposure. Experiments are conducted with or without a DNA-PK inhibitor (e.g., Nu7441) and with and without doxycycline in the drinking water and/or in the food. 10 animals are used per group with 8 groups for a total of 80 animals (FIG. 7).

[3] = tested on: UMUC-3 bladder cancer cells; assay: Clonogenic survival assay in UMUC-3 bladder cancer cells; type: cell-based, human; settings: doxycycline induction plus Nu7441
Source text: FIG. 6C is a series of bar plots showing data collected from an […] clonogenic survival assay in the UMUC-3 bladder cells shown schematically in FIG. 6B. […] Further, treatments with the DNA-PK inhibitor Nu7441 improved the toxicity of the CRJ-targeting gRNAs (bottom row). The data are expressed as the mean and standard deviation of three biological replicates. Numbers (3a & X; 7 & 2; 7 & 4; 19 & 2; and 19 & 4) indicate the combinations of gRNA used for the experiment.
First, CRJs were identified in bladder cancer cells (see, e.g., FIG. 6A). Using sequence information from the CRJs identified in bladder cancer cells, gRNA were designed and UMUC-3 (ATCC Accession CRL-1749) cell lines were produced comprising doxycycline-inducible expression of Fok1-dCas9 and the CRJ-targeting gRNAs. gRNA sequences are provided in Table 2.
Six UMUC-3 bladder cancer sublines were generated—Two control cell lines were produced, one expressing no gRNAs and one expressing 2 pairs of non-targeting gRNAs; four experimental cell lines were produced expressing Fok1-dCas9-GFP and two pairs of CRJ-targeting gRNAs under the regulation of doxycycline (see, e.g., FIG. 6B). CRJ-specific DSBs were induced in the cells (e.g., using doxycycline) and toxicity was monitored to determine if interfering with DSB repair leads to increased killing of bladder cancer cells (see, e.g., FIG. 6C, top row). […]

[4] = tested on: HCT116 cells; assay: Clonogenic survival of HCT116 cells with Dox-inducible dCas9-Fok1-GFP and gRNA pairs; type: cell-based; settings: Nu7441 200 nM, 12 days, no gRNA
Experimental: Cells were plated and treated with different concentrations of Dox for 12 days. Cells were then fixed and stained, colonies were counted, and colony numbers were reported as a percentage of control cells not treated with Dox. […] Cells were plated and treated with different concentrations of Dox for 12 days. Cells were then fixed and stained and colonies counted and expressed as a percentage of control cells not treated with Dox. In FIG. 5A and FIG. 5B, the gRNA pairs target two CRJs on chromosome 3 (3ab and 3cd), one on chromosome 5 (5ab), and one on the X chromosome (xab).
During the development of embodiments of the technology provided herein, experiments were conducted to evaluate use of a dCas9-Fok1 fusion protein and to produce a dCas9-Fok1 fusion protein further comprising a GFP domain to provide a tool to detect expression in cells. Furthermore, the dCas9-Fok1-GFP fusion and the gRNA genes were placed under the regulation of a tet-inducible promoter for performing experiments to establish the cells in culture or as xenografts and then induce expression by addition of doxycycline (Dox). […]
HCT116 cells with stable expression of dCas9-Fok1-GFP, 3ab3cd/Fok1-dcas9-GFP, 5ab3cd/Fok1-GFP, and 3abxab/dCas9-GFP were maintained in DMEM containing 10% FBS. […] Clonogenic survival colonies with 50 cells or more were counted.

With `O=c1cc(N2CCOCC2)oc2c(-c3cccc4c3sc3ccccc34)cccc12` [Nu7441] as the compound, how does the “suppression of tumor growth with Nu7441” value [1] read?
Its value is “Suppression of tumor growth is augmented”.

What about the “tumor growth inhibition with Nu7441” value [2] of the same compound?
Its value is “augments tumor growth inhibition”.

What about the “toxicity / survival with DNA-PK inhibitor Nu7441” value [3] of the same compound?
Its value is “augmented this effect”.

What about the “effect of Nu7441 on clonogenicity of cells expressing dCas9-Fok1-GFP alone” value [4] of the same compound?
Its value is “did not affect clonogenicity”.
